Data taken from PMC5238392, “Origin of anti-tumor activity of the cysteine-containing GO peptides and further optimization of their cytotoxic properties” (Scientific Reports, 2017).

Columns and labels:
Format in all cases: cell-based, human
HT-1080 cells [1] = test: Caspase 3/7 activation assay (CellEvent / SYTOX), HT-1080; settings: 10 μM, 4 h, Fig. 4B
Source text: A complementary perspective on GO-203-induced apoptosis is provided by the caspase 3/7 activation assay, Fig. 4. In both HT-1080 and ZR-75-1, the data offer a clear view of the early and late apoptotic populations. The time dependence illustrated in Fig. 4E,F confirms that the onset of apoptosis occurs sufficiently rapidly in both cell lines – by the time of flow-cytometry observations the system has already approached the steady state. In the literature there is some evidence that activation of executioner caspases may precede the translocation of phosphatidylserine to the outer leaf of the membrane. While this could be in principle relevant for comparison between the Annexin V assay and caspase activation assay, one should bear in mind that in our case both assays offer a snapshot of a fairly advanced apoptotic process.
Figure 4 GO-203-induced apoptosis in HT-1080 and ZR-75-1 cells as assessed by the double staining with CellEvent caspase-3/7 green detection reagent and vital dye SYTOX. (A–D) Flow cytometry histograms for the cells incubated for 4 h with 10 μM of GO-203 and the untreated (control) cells. (E–G) Apoptotic fractions in the GO-203-treated and untreated (control) cells as a function of incubation time and GO-203 concentration. TEXT PRINTED IN THE PICTURE: (B) GO-203: HT-1080: IV.(0.11 %); HT-1080: III.(64.49 %); HT-1080: I.(12.21 %); HT-1080: II.(23.20 %) | (D) GO-203: ZR-75-1: IV.(0.40 %); ZR-75-1: III.(35.18 %); ZR-75-1: I.(28.95 %); ZR-75-1: II.(35.47 %)
The adherent cells were rinsed with PBS, harvested using trypsin-EDTA solution and suspended in the growth medium. To analyze cell cycle phase distribution, 200 μg/ml of saponin (Fluka, USA), 250 μg/ml RNase A, and 50 μg/ml of propidium iodide (both Sigma-Aldrich, USA) were added to each sample tube, thus obtaining DNA stain buffer. After 1 h incubation at room temperature, the samples were analyzed by flow cytometry. To detect apoptosis by flow cytometry, CellEvent Caspase-3/7 Green Flow Cytometry Assay Kit (Thermo Fisher Scientific, USA) and Annexin-V FITC conjugate (BD Biosciences, USA) in combination with propidium iodide have been employed following the manufacturer’s protocols.
Cell fluorescence was measured using CytoFLEX (Beckman Coulter, USA) flow cytometer equipped with 3 lasers (405, 488 and 633 nm). Cells were gated on FSC/SSC to remove debris. Mean fluorescence intensity from 10,000 cells was acquired.

HT-1080 cells [2] = test: Rhodamine 123 mitochondrial membrane potential, HT-1080
Source text: (§1) In broad terms, apoptosis is classified into two fundamental modes: mitochondrial pathway and death receptor pathway. In the former mechanism, apoptotic signals lead to a loss of mitochondrial membrane potential, termination of mitochondrial ATP synthesis, overproduction of reactive oxygen species (ROS) and their release into cytosol along with a number of pro-apoptotic proteins that are normally confined to the intermembrane space of the mitochondria. To determine whether this mechanism is relevant for GO-203-induced cell death, we have analyzed the time variation of mitochondrial membrane potential and cellular level of ROS over the time interval of 2 h following the addition of the peptide. Toward this goal, the cells were preloaded with Rhodamine 123 or carboxy-H2DCFDA fluorescent dyes, then washed, suspended in the growth medium, and treated with GO-203. The fluorescence was measured concurrently with the side angle light scatter.
Only at 90–100 min we observe a moderate decrease of the fluorescence signal from the treated cells, which indicates the drop in mitochondrial membrane potential. As discussed above, the onset of apoptosis in HT-1080 occurs considerably earlier than that. […] Therefore we assume that mitochondrial membrane permeabilization (MMP) occurs relatively late in the game and is unlikely to be a key element of the GO-203-induced apoptosis.
Finally, the same experimental scheme as described above for H2DCFDA/DCFDA measurements was also used with Rhodamine 123. […] The same observation has been made for ZR-75-1.
(§2) The cells were seeded into 35-mm Nunc culture dishes (Thermo Scientific, USA) at 1.2 × 10^5 cells per dish and allowed to attach for 24 h. […] After that GO-203 was added directly to the suspension and cell fluorescence was measured by flow cytometry at multiple time points during the following 2 hours. […] Cell fluorescence was then immediately measured by flow cytometry. […]

HT-1080 cells [3] = test: carboxy-H2DCFDA time-dependent intracellular ROS, HT-1080; settings: suspended HT-1080; 5 μM
Source text: as §1, with “Toward this goal, the cells were preloaded with Rhodamine 123 or carboxy-H2DCFDA fluorescent dyes, then washed, suspended in the growth medium, and treated with GO-203.” left out
To confirm this finding we have also used the carboxy-H2DCFDA probe of the general oxidative stress. […] The results of the ROS assay in HT-1080, where the intensity of fluorescence signal reflects the level of intracellular oxidants, are shown in Fig. 6B. […]
as §2

[4] = suspended HT-1080, one-time 5 μM dose

Substance: [R]9CQCRRKN [GO-203, in clinical trials]
- quadrant I fraction (caspase-3/7 / SYTOX) (HT-1080 cells [1]): 12.21%
- quadrant II fraction (caspase-3/7 / SYTOX) (HT-1080 cells [1]): 23.20%
- quadrant III fraction (caspase-3/7 / SYTOX) (HT-1080 cells [1]): 64.49%
- quadrant IV fraction (caspase-3/7 / SYTOX) (HT-1080 cells [1]): 0.11%
- Mitochondrial membrane potential (Rhodamine 123) (HT-1080 cells [2]; HT-1080, 30 min after application, same scheme as H2DCFDA/DCFDA measurements): fully maintained
- Time for which mitochondrial retention of Rhodamine 123 remains the same as control (HT-1080 cells [2]; [4]): at least 70 min
- Time of moderate decrease of Rhodamine 123 fluorescence (drop in mitochondrial membrane potential) (HT-1080 cells [2]; [4]): 90 to 100 min
- Time at which carboxy-H2DCFDA fluorescence (ROS) begins to diverge from control (HT-1080 cells [3]): 80 to 90 min
- Time at which elevated level of ROS is evident (HT-1080 cells [3]): 120 min
